# In PMC9653409, “Generative deep learning enables the discovery of a potent and selective RIPK1 inhibitor” (Nature Communications, 2022):
# Like-named read-outs stand apart in the source and are kept apart here.
# How the values were obtained:
# Assay in all cases: Kinase inhibitory activity profiling of RI-962@10 µM (406 kinases, Eurofins)
# Type in all cases: biochemical
# [1] = target: panel of human kinases (kinase named in endpoint) (Homo sapiens, UniProt P15056); details: 10 µM; read-out: Activity (%), B-Raf(h)
# Method in brief: (§1)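 Radiometric filter-binding kinase assays: enzyme preincubated 15 min with compound in 8 mM MOPS pH 7.0, 0.2 mM EDTA, 250 μM peptide substrate, 10 mM magnesium acetate, 10 μM [γ-33P]-ATP. Reaction started with Mg/ATP, run 40 min at room temperature, stopped with phosphoric acid; 33P incorporation read by scintillation counting. Other kinases by similar protocols.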
# [2] = target: panel of human kinases (kinase named in endpoint) (Homo sapiens, UniProt Q8IWQ3); details: 10 µM; read-out: Activity (%), BrSK2(h)
# Method in brief: as §1
# [3] = target: panel of human kinases (kinase named in endpoint) (Homo sapiens, UniProt P42338); details: 10 µM; read-out: Activity (%), PI3 Kinase (p110b/p85a)(h)
# Method in brief: as §1
# [4] = target: panel of human kinases (kinase named in endpoint) (Homo sapiens, UniProt Q9UPZ9); details: 10 µM; read-out: Activity (%), ICK(h)
# Sequence of panel of human kinases (kinase named in endpoint) (Homo sapiens, UniProt Q9UPZ9) (Q9UPZ9 whole entry): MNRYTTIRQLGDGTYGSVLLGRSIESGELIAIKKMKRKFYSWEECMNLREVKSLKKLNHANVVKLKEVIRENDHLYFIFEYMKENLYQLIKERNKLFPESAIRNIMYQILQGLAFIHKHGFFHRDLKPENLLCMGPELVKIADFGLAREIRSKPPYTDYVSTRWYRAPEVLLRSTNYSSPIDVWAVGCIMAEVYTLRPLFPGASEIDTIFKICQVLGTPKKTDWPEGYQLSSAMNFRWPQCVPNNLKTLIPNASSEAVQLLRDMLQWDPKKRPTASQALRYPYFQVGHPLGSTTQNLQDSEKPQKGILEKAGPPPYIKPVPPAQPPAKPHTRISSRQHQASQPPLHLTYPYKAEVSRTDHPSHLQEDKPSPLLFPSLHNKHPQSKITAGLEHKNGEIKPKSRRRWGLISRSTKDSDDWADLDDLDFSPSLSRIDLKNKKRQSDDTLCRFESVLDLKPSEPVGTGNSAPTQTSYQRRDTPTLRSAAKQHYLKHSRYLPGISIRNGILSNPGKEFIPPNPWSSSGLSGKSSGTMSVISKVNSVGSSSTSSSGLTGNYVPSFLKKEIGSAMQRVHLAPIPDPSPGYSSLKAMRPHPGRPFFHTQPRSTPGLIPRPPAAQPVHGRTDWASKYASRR
# Method in brief: as §1
# [5] = target: panel of human kinases (kinase named in endpoint) (Homo sapiens, UniProt P42336); details: 10 µM
# Sequence of panel of human kinases (kinase named in endpoint) (Homo sapiens, UniProt P42336) (P42336 whole entry): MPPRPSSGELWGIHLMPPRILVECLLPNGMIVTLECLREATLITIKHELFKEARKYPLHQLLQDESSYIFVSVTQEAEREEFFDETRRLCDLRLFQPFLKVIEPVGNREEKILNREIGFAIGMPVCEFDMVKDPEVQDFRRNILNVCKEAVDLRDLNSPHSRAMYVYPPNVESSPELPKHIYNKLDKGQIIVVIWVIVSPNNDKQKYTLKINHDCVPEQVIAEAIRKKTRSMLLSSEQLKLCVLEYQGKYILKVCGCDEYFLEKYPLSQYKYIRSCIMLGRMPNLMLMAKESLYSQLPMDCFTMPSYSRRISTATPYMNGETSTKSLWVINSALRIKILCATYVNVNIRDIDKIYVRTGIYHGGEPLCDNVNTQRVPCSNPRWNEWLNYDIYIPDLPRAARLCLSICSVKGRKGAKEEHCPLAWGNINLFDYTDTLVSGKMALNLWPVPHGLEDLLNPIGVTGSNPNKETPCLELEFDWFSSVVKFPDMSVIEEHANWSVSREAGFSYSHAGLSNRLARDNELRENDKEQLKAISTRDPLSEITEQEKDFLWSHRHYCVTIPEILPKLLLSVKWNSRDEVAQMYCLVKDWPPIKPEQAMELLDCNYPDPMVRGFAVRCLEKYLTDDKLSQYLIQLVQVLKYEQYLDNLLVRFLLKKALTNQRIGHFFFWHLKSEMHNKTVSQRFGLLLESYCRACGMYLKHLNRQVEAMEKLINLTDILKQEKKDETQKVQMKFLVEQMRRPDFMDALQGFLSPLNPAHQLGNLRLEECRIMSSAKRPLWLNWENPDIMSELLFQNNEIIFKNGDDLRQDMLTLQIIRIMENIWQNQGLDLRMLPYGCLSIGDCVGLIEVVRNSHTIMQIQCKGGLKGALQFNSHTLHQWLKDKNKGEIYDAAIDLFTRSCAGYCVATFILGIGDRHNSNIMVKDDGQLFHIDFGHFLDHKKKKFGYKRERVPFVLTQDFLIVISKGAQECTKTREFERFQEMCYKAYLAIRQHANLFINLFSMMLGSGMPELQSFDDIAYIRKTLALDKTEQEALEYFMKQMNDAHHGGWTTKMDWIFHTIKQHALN
# Method in brief: as §1
# [6] = target: panel of human kinases (kinase named in endpoint) (Homo sapiens, UniProt Q9H4A3); details: 10 µM; read-out: Activity (%), WNK1(h)
# Method in brief: as §1
# [7] = target: panel of human kinases (kinase named in endpoint) (Homo sapiens, UniProt P10721, V560G); details: 10 µM; read-out: Activity (%), cKit(V560G)(h)
# Method in brief: as §1
# [8] = target: panel of human kinases (kinase named in endpoint) (Homo sapiens, UniProt Q16539); details: 10 µM; read-out: Activity (%), SAPK2a(h)
# Method in brief: as §1
# [9] = target: panel of human kinases (kinase named in endpoint) (Homo sapiens, UniProt O00506); details: 10 µM; read-out: Activity (%), STK25(h)
# Method in brief: as §1
# [10] = target: panel of human kinases (kinase named in endpoint) (Homo sapiens, UniProt P06213); details: 10 µM
# Sequence of panel of human kinases (kinase named in endpoint) (Homo sapiens, UniProt P06213) (P06213 28-1382): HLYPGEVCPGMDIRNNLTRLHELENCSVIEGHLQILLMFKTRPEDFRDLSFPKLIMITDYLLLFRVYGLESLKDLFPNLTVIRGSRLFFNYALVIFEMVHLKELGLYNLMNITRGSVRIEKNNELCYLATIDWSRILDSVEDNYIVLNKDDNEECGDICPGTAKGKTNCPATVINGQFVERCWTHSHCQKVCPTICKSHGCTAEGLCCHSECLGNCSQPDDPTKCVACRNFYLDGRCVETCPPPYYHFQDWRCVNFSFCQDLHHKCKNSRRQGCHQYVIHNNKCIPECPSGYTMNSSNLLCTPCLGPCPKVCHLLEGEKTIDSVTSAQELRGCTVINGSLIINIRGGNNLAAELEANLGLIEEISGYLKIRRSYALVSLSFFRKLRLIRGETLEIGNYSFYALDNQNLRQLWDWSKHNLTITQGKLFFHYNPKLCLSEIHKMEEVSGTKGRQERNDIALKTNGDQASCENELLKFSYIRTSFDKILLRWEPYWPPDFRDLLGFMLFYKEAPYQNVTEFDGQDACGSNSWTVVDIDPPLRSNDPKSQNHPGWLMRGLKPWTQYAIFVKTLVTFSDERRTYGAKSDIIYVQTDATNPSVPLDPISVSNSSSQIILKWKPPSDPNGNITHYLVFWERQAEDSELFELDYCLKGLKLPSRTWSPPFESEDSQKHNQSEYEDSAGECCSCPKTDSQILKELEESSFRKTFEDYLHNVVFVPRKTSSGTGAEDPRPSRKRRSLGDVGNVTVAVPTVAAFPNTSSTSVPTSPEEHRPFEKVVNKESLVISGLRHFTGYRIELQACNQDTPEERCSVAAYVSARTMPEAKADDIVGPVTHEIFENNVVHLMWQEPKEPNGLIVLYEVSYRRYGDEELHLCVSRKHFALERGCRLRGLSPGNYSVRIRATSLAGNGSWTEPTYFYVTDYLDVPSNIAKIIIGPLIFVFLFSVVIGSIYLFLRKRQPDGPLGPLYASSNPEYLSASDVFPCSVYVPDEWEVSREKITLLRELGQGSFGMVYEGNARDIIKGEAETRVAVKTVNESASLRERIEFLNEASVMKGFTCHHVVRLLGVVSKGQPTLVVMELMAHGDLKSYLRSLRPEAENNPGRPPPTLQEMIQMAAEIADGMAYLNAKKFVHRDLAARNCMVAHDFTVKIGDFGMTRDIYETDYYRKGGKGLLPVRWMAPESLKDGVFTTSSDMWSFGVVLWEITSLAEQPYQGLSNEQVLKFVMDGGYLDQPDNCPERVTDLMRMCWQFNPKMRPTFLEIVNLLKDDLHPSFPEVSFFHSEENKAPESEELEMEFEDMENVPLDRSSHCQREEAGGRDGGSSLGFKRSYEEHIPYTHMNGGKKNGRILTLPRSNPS
# Method in brief: as §1
# [11] = target: panel of human kinases (kinase named in endpoint) (Homo sapiens, UniProt Q8IYT8); details: 10 µM; read-out: Activity (%), ULK2(h)
# Sequence of panel of human kinases (kinase named in endpoint) (Homo sapiens, UniProt Q8IYT8) (Q8IYT8 whole entry): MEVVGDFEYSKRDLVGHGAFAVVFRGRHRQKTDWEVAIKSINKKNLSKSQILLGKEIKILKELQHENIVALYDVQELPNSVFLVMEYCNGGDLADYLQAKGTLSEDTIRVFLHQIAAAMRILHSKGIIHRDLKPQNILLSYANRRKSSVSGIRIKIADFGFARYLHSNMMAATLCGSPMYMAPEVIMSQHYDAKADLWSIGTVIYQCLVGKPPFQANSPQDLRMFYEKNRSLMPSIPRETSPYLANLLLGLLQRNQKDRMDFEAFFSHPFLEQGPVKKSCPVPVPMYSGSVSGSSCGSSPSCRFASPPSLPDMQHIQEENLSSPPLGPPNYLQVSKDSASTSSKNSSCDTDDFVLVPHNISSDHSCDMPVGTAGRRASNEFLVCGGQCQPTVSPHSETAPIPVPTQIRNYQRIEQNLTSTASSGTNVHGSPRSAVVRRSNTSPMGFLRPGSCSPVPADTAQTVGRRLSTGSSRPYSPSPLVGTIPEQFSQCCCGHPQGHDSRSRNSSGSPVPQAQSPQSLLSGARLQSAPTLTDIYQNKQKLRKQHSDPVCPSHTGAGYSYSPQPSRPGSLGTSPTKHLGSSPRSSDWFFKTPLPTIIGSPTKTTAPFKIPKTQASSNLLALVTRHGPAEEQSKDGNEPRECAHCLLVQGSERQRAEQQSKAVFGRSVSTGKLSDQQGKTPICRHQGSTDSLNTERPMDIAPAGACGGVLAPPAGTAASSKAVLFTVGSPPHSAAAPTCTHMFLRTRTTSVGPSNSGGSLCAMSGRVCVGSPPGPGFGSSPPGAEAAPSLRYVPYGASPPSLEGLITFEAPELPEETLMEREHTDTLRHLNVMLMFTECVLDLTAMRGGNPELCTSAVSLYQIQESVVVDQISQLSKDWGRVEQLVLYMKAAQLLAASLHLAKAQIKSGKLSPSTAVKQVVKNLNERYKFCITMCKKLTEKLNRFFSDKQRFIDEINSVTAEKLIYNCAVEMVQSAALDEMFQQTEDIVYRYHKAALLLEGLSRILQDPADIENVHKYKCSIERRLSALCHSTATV
# Method in brief: as §1
# [12] = target: panel of human kinases (kinase named in endpoint) (Homo sapiens, UniProt Q15349); details: 10 µM; read-out: Activity (%), Rsk3(h)
# Method in brief: as §1
# [13] = target: panel of human kinases (kinase named in endpoint) (Homo sapiens, UniProt Q14680); details: 10 µM; read-out: Activity (%), MELK(h)
# Method in brief: as §1
# [14] = target: panel of human kinases (kinase named in endpoint) (Homo sapiens, UniProt Q07002); details: 10 µM; read-out: Activity (%), CDK18/cyclinY(h)
# Method in brief: as §1
# [15] = target: panel of human kinases (kinase named in endpoint) (Homo sapiens, UniProt P07333, Y969C); details: 10 µM; read-out: Activity (%), Fms(Y969C)(h)
# Method in brief: as §1
# [16] = target: panel of human kinases (kinase named in endpoint) (Homo sapiens, UniProt O00444); details: 10 µM; read-out: Activity (%), Plk4(h)
# Method in brief: as §1
# [17] = target: panel of human kinases (kinase named in endpoint) (Homo sapiens, UniProt Q00537); details: 10 µM; read-out: Activity (%), CDK17/cyclinY(h)
# Method in brief: as §1
# [18] = target: panel of human kinases (kinase named in endpoint) (Homo sapiens, UniProt Q00535); details: 10 µM
# Sequence of panel of human kinases (kinase named in endpoint) (Homo sapiens, UniProt Q00535) (Q00535 whole entry): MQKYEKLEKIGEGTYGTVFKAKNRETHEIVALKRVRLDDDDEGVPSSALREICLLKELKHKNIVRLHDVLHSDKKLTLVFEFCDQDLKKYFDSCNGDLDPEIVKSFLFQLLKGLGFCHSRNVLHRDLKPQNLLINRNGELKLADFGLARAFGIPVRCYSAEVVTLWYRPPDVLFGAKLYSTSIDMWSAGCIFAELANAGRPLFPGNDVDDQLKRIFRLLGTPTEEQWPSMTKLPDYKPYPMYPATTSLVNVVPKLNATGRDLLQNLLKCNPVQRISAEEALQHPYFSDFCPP
# Method in brief: as §1
# [19] = target: panel of human kinases (kinase named in endpoint) (Homo sapiens, UniProt Q92772); details: 10 µM; read-out: Activity (%), CDKL2(h)
# Method in brief: as §1
# [20] = target: panel of human kinases (kinase named in endpoint) (Homo sapiens, UniProt P00519, M351T); details: 10 µM; read-out: Activity (%), Abl (M351T)(h)
# Method in brief: as §1
# [21] = target: panel of human kinases (kinase named in endpoint) (Homo sapiens, UniProt P19525); details: 10 µM; read-out: Activity (%), PKR(h)
# Method in brief: as §1
# [22] = target: panel of human kinases (kinase named in endpoint) (Homo sapiens, UniProt P11362, V561M); details: 10 µM; read-out: Activity (%), FGFR1(V561M)(h)
# Method in brief: as §1
# [23] = target: panel of human kinases (kinase named in endpoint) (Homo sapiens, UniProt Q13873); details: 10 µM; read-out: Activity (%), BMPR2(h)
# Method in brief: as §1
# [24] = target: panel of human kinases (kinase named in endpoint) (Homo sapiens, UniProt P50750); details: 10 µM; read-out: Activity (%), CDK9/cyclin T1(h)
# Method in brief: as §1
# [25] = target: panel of human kinases (kinase named in endpoint) (Homo sapiens, UniProt P06239); details: 10 µM
# Sequence of panel of human kinases (kinase named in endpoint) (Homo sapiens, UniProt P06239) (P06239 whole entry): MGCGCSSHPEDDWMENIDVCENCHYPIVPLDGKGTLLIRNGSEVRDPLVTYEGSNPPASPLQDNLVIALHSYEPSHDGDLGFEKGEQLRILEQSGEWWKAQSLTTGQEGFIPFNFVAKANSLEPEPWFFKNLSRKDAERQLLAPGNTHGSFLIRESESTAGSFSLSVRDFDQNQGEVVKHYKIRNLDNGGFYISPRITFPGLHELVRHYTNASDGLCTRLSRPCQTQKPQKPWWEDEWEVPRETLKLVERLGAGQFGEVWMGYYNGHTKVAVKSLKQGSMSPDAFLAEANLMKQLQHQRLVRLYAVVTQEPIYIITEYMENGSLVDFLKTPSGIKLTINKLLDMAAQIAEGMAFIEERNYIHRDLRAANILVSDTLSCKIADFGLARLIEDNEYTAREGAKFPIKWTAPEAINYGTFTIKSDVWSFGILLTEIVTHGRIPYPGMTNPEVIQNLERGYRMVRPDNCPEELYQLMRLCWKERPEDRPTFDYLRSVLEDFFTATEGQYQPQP
# Method in brief: as §1
compound,measurement,setting,value
CC(C)C(=O)Nc1nc2cc(-c3ccc4c(c3)c(C(=O)NC(C)c3ccccc3)cn4C)ccn2n1 (centres unmarked) [RI-962],activity at 10 µM,[1],99%
same,activity at 10 µM,[2],110%
same,activity at 10 µM,[3],88%
same,activity at 10 µM,[4],102%
same,activity at 10 µM,"[5]; read-out: Activity (%), PI3 Kinase (p110a/p65a)(h)",97%
same,activity at 10 µM,"[5]; read-out: Activity (%), PI3 Kinase (p110a/p85a)(h)",94%
same,activity at 10 µM,[6],75%
same,activity at 10 µM,[7],95%
same,activity at 10 µM,[8],118%
same,activity at 10 µM,[9],81%
same,activity at 10 µM,"[10]; read-out: Activity (%), IR(h)",103%
same,activity at 10 µM,"[10]; read-out: Activity (%), IR(h), activated",89%
same,activity at 10 µM,[11],89%
same,activity at 10 µM,[12],110%
same,activity at 10 µM,[13],95%
same,activity at 10 µM,[14],119%
same,activity at 10 µM,[15],73%
same,activity at 10 µM,[16],88%
same,activity at 10 µM,[17],124%
same,activity at 10 µM,"[18]; read-out: Activity (%), CDK5/p25(h)",92%
same,activity at 10 µM,"[18]; read-out: Activity (%), CDK5/p35(h)",118%
same,activity at 10 µM,[19],77%
same,activity at 10 µM,[20],121%
same,activity at 10 µM,[21],97%
same,activity at 10 µM,[22],99%
same,activity at 10 µM,[23],105%
same,activity at 10 µM,[24],67%
same,activity at 10 µM,"[25]; read-out: Activity (%), Lck(h)",137%
same,activity at 10 µM,"[25]; read-out: Activity (%), Lck(h) activated",81%
